Data reported in publication PMC4521012, “Distortion of the Major Histocompatibility Complex Class I Binding Groove to Accommodate an Insulin-derived 10-Mer Peptide” (The Journal of Biological Chemistry, 2015).

Legend:
[1] = test system: G9C8 T-cell clone (insulin-reactive CD8+ T-cells); test: T-cell functional assays (proliferation, MIP1β and IFNγ production); format: cell-based, NOD mouse; conditions: in all assays: [3H]thymidine proliferation, MIP1β and IFNγ ELISA; CD8+ T-cells with bone marrow-derived dendritic cells 10:1
Description: Splenic CD8^+ T-cells were purified using a Miltenyi MACS CD8^+ isolation kit (>90% purity) and cultured at 10:1 with bone marrow-derived dendritic cells with the LYLVCGERGF (G9GF), LYLVCGERG (G9G), or LYLVCGERV (G9V) peptide in RPMI medium supplemented with 5% FCS, 2 mM L-glutamine, 0.05 mM 2-mercaptoethanol, penicillin/streptomycin. Each sample was plated in duplicate. After 48 h of incubation, cells were pulsed with 0.5 μCi of [^3H]thymidine for 18 h, harvested, and counted to determine [^3H]thymidine incorporation.
Supernatants were removed from the proliferation assay cultures prior to the addition of [^3H]thymidine. MIP1β was measured by sandwich ELISA (R&D systems), whereas IFNγ was measured using a similar protocol (BD Biosciences) with the modification that the capture antibody was diluted in carbonate buffer and incubated at 4 °C overnight. Plates were blocked at 37 °C for 1 h, and the detection antibody was incubated for 1 h at room temperature.

[2] = test system: G9C8 T-cell clone (insulin-reactive CD8+ T-cells); test: Staining of insulin-specific CD8 T-cells with H-2K^d·peptide tetramers; format: cell-based, NOD mouse; conditions: flow cytometry; for Tetramer+ (% of G9C8 clone stained by H-2K^d·peptide tetramer): splenocytes of G9Cα−/− NOD mice, 50 nM dasatinib preincubation, 0.5 μg tetramer, 15 min at 37 °C, gated on live CD8+ cells
[3] = test system: G9C8 TCR; test: Surface plasmon resonance analysis of G9C8 TCR binding to peptide-H-2K^d; set-up: species or system NOD mouse; conditions: SPR, 25 °C
Description: Binding analysis was performed using a BIAcore 3000^TM equipped with a CM5 sensor chip as described previously ([41]). Binding analysis was performed four times in independent experiments using pMHC monomers generated in house and from the National Institutes of Health tetramer facility. Approximately 200–500 RU of peptide-H-2K^d (in complex with G9GF, G9G, or G9V) was attached to the CM5 sensor chip at a slow flow rate of 10 μl/min to ensure uniform distribution on the chip surface. Combined with the small amount of peptide-H-2K^d bound to the chip surface, this reduced the likelihood of off-rate-limiting mass transfer effects. The G9C8 TCR was purified and concentrated to ∼140 μM on the same day of surface plasmon resonance analysis to reduce the likelihood of TCR aggregation affecting the results. For equilibrium analysis, eight serial dilutions were prepared in triplicate for each sample and injected over the relevant sensor chips at 25 °C. TCR was injected over the chip surface using kinetic injections at a flow rate of 45 μl/min using H-2K^d·AYAAAAAAV or HLA-A*0201·ALWGPDPAAA in different experiments as negative controls.

[4] = molecular target: H-2K^d (Mus musculus, UniProt P01902); test: pMHC stability assay (thermal stability by CD spectroscopy); format: physicochemical, murine; conditions: CD spectroscopy at 218 nm, 2.5 μM protein in PBS, 4-90 °C in 0.5 °C intervals, two-state trimer-to-monomer fit
Description: Thermal stability of H-2K^d complexes was assessed by circular dichroism (CD) spectroscopy, monitoring the change in ellipticities at 218 nm. Data were collected on an Aviv Model 215 spectropolarimeter (Aviv Biomedical Inc., Lakewood, NJ) using a 0.1-cm quartz cell. Proteins were dissolved in PBS at concentrations of 2.5 μM. Melting curves were recorded in 0.5 °C intervals from 4 °C up to a maximum temperature of 90 °C when protein aggregation was observed. Melting curves were analyzed assuming a two-state trimer-to-monomer transition from the native (N) to unfolded (U) conformation N3 ↔ 3U with an equilibrium constant K = [U]^3/[N3] = F/(3c^2(1 − F)^3), where F and c are the degree of folding and protein concentration, respectively. Data were fitted as described ([38]). Fitted parameters were the melting temperature (Tm), van't Hoff's enthalpy (ΔHvH), and the slope and intercept of the native baseline. Because all protein complexes aggregated upon unfolding, the ellipticity of the unfolded state was set as a constant of −4,500 degrees cm^2 dmol^−1 ([39], [40]).

H-2K^d, sequence (P01902 whole entry, looked up): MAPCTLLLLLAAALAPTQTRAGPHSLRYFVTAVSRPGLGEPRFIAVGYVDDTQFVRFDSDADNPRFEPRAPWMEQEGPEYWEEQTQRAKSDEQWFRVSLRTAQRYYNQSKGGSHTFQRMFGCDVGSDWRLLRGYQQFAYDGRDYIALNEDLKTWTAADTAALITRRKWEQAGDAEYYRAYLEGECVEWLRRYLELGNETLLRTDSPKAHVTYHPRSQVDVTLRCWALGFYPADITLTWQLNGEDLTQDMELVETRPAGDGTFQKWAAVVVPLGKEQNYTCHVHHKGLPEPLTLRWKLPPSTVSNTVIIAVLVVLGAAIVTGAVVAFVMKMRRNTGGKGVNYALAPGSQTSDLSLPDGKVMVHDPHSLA

| Sequence | Sensitivity of the G9C8 T-cell clone to G9G compared with G9GF [1] | Tetramer+ (% of G9C8 clone stained by H-2K^d·peptide tetramer) [2] | Sensitivity of the G9C8 T-cell clone to G9V compared with G9G [1] | G9C8 TCR affinity for the altered ligand compared with the native ligands (higher) [3] | Mean fluorescence intensity of tetramer staining, compared with H-2K^d·G9G tetramer (in words) ([2]; different concentrations of each tetramer) | Melting temperature of the H-2K^d complex, difference to G9G and G9GF (higher) [4] |
| --- | --- | --- | --- | --- | --- | --- |
| LYLVCGERG [G9G, native insulin B chain 9-mer peptide, tested as complex or tetramer with H-2K^d] | about 5 times | 85.7% |  |  |  |  |
| LYLVCGERV [G9V] |  | 87.9% | at least 5 times | > 10 times | substantially higher | over 20 °C |
